Results published in ChEMBL document CHEMBL5726062, “Substituted oxopyridine derivatives” (2019).

Molecular target: Coagulation factor XI (Homo sapiens, UniProt P03951)
Experiment: Measurement of FXIa Inhibition: The factor XIa inhibition of the substances according to the invention is determined using a biochemical test system which utilizes the reaction of a peptidic factor XIa substrate to determine the enzymatic activity of human factor XIa. Here, factor XIa cleaves from the peptic factor XIa substrate the C-terminal aminomethylcoumarin (AMC), the fluorescence of which is measured. The determinations are carried out in microtitre plates.Test substances are dissolved in dimethyl sulphoxide and serially diluted in dimethyl sulphoxide (3000 μM to 0.0078 μM; resulting final concentrations in the test: 50 μM to 0.00013 μM). 1 μl of the diluted substance solutions is placed into each of the wells of white microtitre plates from Greiner (384 wells). 20 μl of assay buffer (50 mM of Tris/HCl pH 7.4; 100 mM of sodium chloride; 5 mM of calcium chloride; 0.1% of bovine serum albumin) and 20 μl of factor XIa from Kordia (0.45 nM in assay buffer) are then added successively. After […] of incubation, the enzyme reaction is started by addition of 20 μl of the factor XIa substrate Boc-Glu(OBzl)-Ala-Arg-AMC dissolved in assay buffer (10 μM in assay buffer) from Bachem, the mixture is incubated at room temperature (22° C.) for 30 min and fluorescence is then measured (excitation: 360 nm, emission: 460 nm). […]

Coagulation factor XI, sequence (P03951 19-387 limits assumed): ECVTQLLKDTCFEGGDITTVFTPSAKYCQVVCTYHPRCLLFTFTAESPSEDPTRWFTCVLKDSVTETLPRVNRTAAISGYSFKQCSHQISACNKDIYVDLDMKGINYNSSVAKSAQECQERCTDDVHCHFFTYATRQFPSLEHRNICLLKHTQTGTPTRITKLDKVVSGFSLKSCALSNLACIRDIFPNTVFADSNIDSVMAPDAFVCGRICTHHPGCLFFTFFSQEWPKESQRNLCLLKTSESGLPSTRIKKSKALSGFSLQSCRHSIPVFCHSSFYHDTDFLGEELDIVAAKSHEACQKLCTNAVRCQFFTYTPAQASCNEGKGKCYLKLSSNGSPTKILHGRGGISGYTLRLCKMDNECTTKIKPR
Coagulation factor XI, sequence (P03951 388-625 limits assumed): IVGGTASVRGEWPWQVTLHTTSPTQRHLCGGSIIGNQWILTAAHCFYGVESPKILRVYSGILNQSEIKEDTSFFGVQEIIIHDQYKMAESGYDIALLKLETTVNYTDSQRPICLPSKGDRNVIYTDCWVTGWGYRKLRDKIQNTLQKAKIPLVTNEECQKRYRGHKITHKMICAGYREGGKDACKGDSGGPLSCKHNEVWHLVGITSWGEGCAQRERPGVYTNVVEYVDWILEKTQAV

Question: For CNC(=O)c1ccc(NC(=O)C(Cc2cnco2)n2cc(OC)c(-c3cc(Cl)ccc3C#N)cc2=O)cn1 (racemic), which IC50 is on record?
Answer: The IC50 was 12 nM.
